What all share (type): cell-based
The test system of test [1] is HCV NS3 protease variant replicon R155K. The test can be described thus: microbe, parasite or virus in culture. As for the experimental part: (§1) Huh-7 cells were propagated in Dulbecco's modified Eagle's medium (DMEM, JRH Biosciences, Lenexa, Kans.) supplemented with 10% heat-inactivated FBS (fetal bovine serum), 2 mM L-glutamine, and nonessential amino acids (JRH). The cells were transfected with an in vitro transcribed HCV replicon RNA identical to replicon 1377neo/NS3-3′/wt as described by Lohmann et al. (1999). Stable cell clones were selected and maintained in the presence of 250 μg/mL G418 (Invitrogen, Carlsbad, Calif.). […] The HCV NS3 protease variant replicons were constructed in the background of the mADE wild-type replicon as described previously [Chao Lin et al., “In Vitro Resistance Studies of Hepatitis C Virus Serine Protease Inhibitors, VX-950 and BILN 2061: Structural Analysis Indicates Different Resistance Mechanisms,” Journal of Biological Chemistry, 279(17); pp. 17508-17514 (2004)]. The replicon cells were propagated in DMEM supplemented with 10% FBS, 2 mM L-glutamine, nonessential amino acids, and 250 μg/mL G418. The cells were split twice per week in fresh media upon reaching confluence. There are approximately 200-300 copies of HCV RNA per 24-2 replicon cell.
(§2) HCV replicon RNA from cells was measured using the Quantigene Discover XL kit (Panomics Inc., Fremont Calif.) as per the manufacturer's instructions. Briefly, compound-treated replicon cells were lysed and immobilized on to capture plates using HCV specific oligonucleotides (designed based on the 5′ UTR region of HCV 1b genome sequence AJ238799 in the GenBank database) over night and the relative amounts of captured RNA was measured using oligonucleotide probe sets as per the manufacturer's instructions.
(§3) On the day prior to the assay, 10,000 replicon cells were plated per well of a 96-well plate and allowed to attach and grow overnight in DMEM (Invitrogen, Carlsbad, Calif.) supplemented with 10% heat-inactivated FBS (JRH Biosciences, Lenexa, Kans.), 2 mM L-glutamine (Invitrogen), nonessential amino acids (Invitrogen) and 250 μg/ml G418 (Invitrogen). Next day, the medium was removed and antiviral agents that were serially diluted in DMEM containing 2% FBS and 0.5% DMSO (Sigma Chemical Co., St. Louis, Mo.) without G418, was added. The replicon cells were incubated with the antiviral agents for 48 h. HCV replicon RNA from cells was measured using the Quantigene Discover XL kit (Panomics Inc., Fremont Calif.) as per the manufacturer's instructions. Briefly, compound-treated replicon cells were lysed and immobilized onto capture plates using HCV specific oligonucleotides overnight and the relative amounts of captured RNA was measured using oligonucleotide probe sets as per the manufacturer's instructions. Unless indicated otherwise, each data point represents the average of three replicates. The IC50 is the concentration of the compound at which the HCV replicon RNA level in cells is reduced by 50% as compared to the untreated replicon cell controls. To monitor the effect of compounds on cell proliferation or cell viability, replicon cells were treated with serially diluted compounds for 48 h, after which cell viability was determined using a CellTiter Glo assay (Promega, Madison, Wis.). Each CC50 is derived from at least two replicates and is the concentration of the compound at which the number of viable cells is reduced by 50% as compared to untreated cell controls. The IC50 and CC50 was determined using 4-parameter curve fitting in the SoftMax Pro program (Molecular Devices, Sunnyvale, Calif.).
(§4) The sensitivity of NS3 protease variants to ribavirin and interferon was assessed in a 2-Day HCV Replicon IC50 Assay.

Test [2] relates to HCV NS3 protease variant replicon V36M+R155K. The test is described as follows: microbe, parasite or virus in culture. The following applies: V36M-R155K; ratio of mutant IC50 to Wild type IC50 for the same inhibitor. The method, then:
as §1, §2, §3, §4

In test [3] the test system is HCV NS3 protease variant replicon V36A. The test can be described thus: microbe, parasite or virus in culture. As for the experimental part:
as §1, §2, §3, §4

For test [4], the system named is HCV NS3 protease variant replicon V36M. The test is described as follows: microbe, parasite or virus in culture. The method, then: as §1, §2, §3, §4
Test [5] concerns HCV NS3 protease variant replicon T54A. The test can be described thus: microbe, parasite or virus in culture. The method, then:
as §1, §2, §3, §4

Test [6] deals with HCV NS3 protease variant replicon A156T. The test is described as follows: 2-Day HCV Replicon IC50 Assay, A156T. As for the experimental part: as §1, §2, §3, §4
(In general: A replicon is a self-replicating genome or part of one, used to study replication in cells.)

Test [7] has as its system HCV replicon Wild Type (mADE). The test can be described thus: 2-Day HCV Replicon IC50 Assay, wild type replicon. The following applies: Wild Type replicon. The method, then: as §1, §2, §3, §4
The subject of test [8] is HCV NS3 protease variant replicon A156V. The test is described as follows: 2-Day HCV Replicon IC50 Assay, A156V. The method, then:
as §1, §2, §3, §4

The mark [9] stands for this setting: Hepatitis C virus, read-out: Avg. IC50 ± STDEV.

For orientation: IC50 means the concentration that gives 50% inhibition.

As to `CCC[C@H](NC(=O)[C@@H]1[C@H]2CCC[C@H]2CN1C(=O)[C@@H](NC(=O)[C@@H](NC(=O)c1cnccn1)C1CCCCC1)C(C)(C)C)C(=O)C(=O)NC1CC1` [VX-950], the IC50 in test [1] (setting [9]) was 3.59 ± 0.283 µM; in test [3] (setting [9]) it was 3.57 ± 1.05 µM; in test [4] (setting [9]) it was 3.38 ± 0.775 µM; in test [5] (setting [9]), 3.04 ± 0.819 µM; in test [6] (setting [9]), > 30 µM; in test [7] (Hepatitis C virus, Table 8, read-out: Avg. IC50 ± STDEV), 0.46 ± 0.101 µM. Also, the concentration for half-maximal inhibition (IC50) in test [8] (setting [9]) is > 30 µM. The “Fold Change” value in test [1] (R155K, ratio of mutant IC50 to Wild type IC50 for the same inhibitor) is recorded as 7.8 ± 0.6; in test [2] it was “≧65.2”; in test [3] (V36A, ratio of mutant IC50 to Wild type IC50 for the same inhibitor), 7.7 ± 2.3; in test [4] (V36M, ratio of mutant IC50 to Wild type IC50 for the same inhibitor), 7.3 ± 1.7; in test [5] (T54A, ratio of mutant IC50 to Wild type IC50 for the same inhibitor), 6.6 ± 1.8; in test [6] (A156T, ratio of mutant IC50 to Wild type IC50 for the same inhibitor), >65.2. Moreover, the “Fold Change” value is recorded as 1 ± 0.2 in test [7] (ratio of IC50 to Wild type IC50 for the same inhibitor) and >65.2 in test [8] (A156V, ratio of mutant IC50 to Wild type IC50 for the same inhibitor).

Values taken from patent publication US8258116B2, “Combination therapy for the treatment of HCV infection” (Vertex Pharmaceuticals Incorporated, priority 2007, dated 2012).
